The results in this text go back to ChEMBL document CHEMBL3603763, “Phosphate-modified analogues of m(7)GTP and m(7)Gppppm(7)G-Synthesis and biochemical properties” (Bioorg Med Chem, 2015).

The target in data set [1] is Eukaryotic translation initiation factor 4E (Oryctolagus cuniculus) (UniProt P29338). The experiment in a line: Inhibition of eIF4E-mediated translation in flexi rabbit reticulocyte lysate using luciferase mRNA by luminescence based luciferase assay relative to m7GpppG.
For data set [2], the target named is T1, DcpS (m7GpppX diphosphatase) (Homo sapiens, UniProt Q96C86).
T1 sequence (Q96C86 whole entry): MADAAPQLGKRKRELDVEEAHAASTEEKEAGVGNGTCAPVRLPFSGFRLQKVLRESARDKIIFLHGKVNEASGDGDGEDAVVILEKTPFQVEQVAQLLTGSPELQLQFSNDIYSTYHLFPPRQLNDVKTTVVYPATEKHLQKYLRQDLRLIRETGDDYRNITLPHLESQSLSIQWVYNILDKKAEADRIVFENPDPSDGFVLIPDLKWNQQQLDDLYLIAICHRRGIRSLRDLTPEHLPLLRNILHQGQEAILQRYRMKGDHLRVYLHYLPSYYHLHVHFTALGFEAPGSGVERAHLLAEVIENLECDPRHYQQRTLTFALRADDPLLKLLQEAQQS
The experiment in a line: Stability of the compound assessed as human DcpS-mediated compound hydrolysis at 40 uM after 180 mins by HPLC analysis. In kind it is ADME. The conditions noted are these: human DcpS enzyme (m7GpppX diphosphatase), read-out: Drug degradation.

Data set [3] addresses Eukaryotic translation initiation factor 4E (Homo sapiens) (UniProt P06730).
Description: Binding affinity to eIF4E (unknown origin) by fluorescence quenching assay
The target in data set [4] is T2, Eukaryotic translation initiation factor 4E (Oryctolagus cuniculus, UniProt P29338). The experiment in a line: Inhibition of eIF4E-mediated translation in flexi rabbit reticulocyte lysate using luciferase mRNA preincubated for 60 mins before mRNA addition by luminescence based luciferase assay.
For the next data set, the target named is T3, m7GpppX diphosphatase (Homo sapiens, UniProt Q96C86).
T3 sequence (Q96C86 whole entry): T1 sequence (Q96C86 whole entry)
The experiment in a line: Stability of the compound assessed as human DcpS-mediated compound hydrolysis at 40 uM after 10 to 180 mins by HPLC analysis. In kind it is ADME.

In data set [5] the target is T2, Eukaryotic translation initiation factor 4E. Put plainly: Inhibition of eIF4E-mediated translation in flexi rabbit reticulocyte lysate using luciferase mRNA treated simultaneously with mRNA by luminescence based luciferase assay.
A short description of data set [6]: Chemical stability of the compound in glycine buffer at pH 2.2. In kind it is physicochemical.
The nature of data set [7]: Chemical stability of the compound in aqueous buffer at pH 4 to 8.5. In kind it is physicochemical.
In data set [8] the test system is Serum. The experiment in a line: Stability of the compound in 5% fetal bovine serum at 50 uM up to 240 mins by RP-HPLC analysis. The conditions noted are these: cattle, 4 h. Type of data set: ADME, cell-free, Bos taurus.
The test system of data set [9] is Serum. Put plainly: Stability of the compound in 10% fetal bovine serum at 50 uM up to 240 mins by RP-HPLC analysis. In kind it is ADME, cell-free, Bos taurus. The settings on record: cattle, 4 h.
Data set [10] is described as follows: Chemical stability of the compound in glycine buffer at pH 2.2 after 16 hrs. Type of data set: physicochemical. The conditions noted are these: pH 2.2, 16 h.
Data set [11] in a line: Chemical stability of the compound in […] buffer at pH 8.5. In kind it is physicochemical.
A short description of data set [12]: Chemical stability of the compound in phosphate buffer at pH 7 assessed as compound decomposition. Type of data set: physicochemical. The settings on record: read-out: Drug degradation.

pIC50: −log10 of the molar value.

Eukaryotic translation initiation factor 4E (Homo sapiens), sequence (P06730 whole entry): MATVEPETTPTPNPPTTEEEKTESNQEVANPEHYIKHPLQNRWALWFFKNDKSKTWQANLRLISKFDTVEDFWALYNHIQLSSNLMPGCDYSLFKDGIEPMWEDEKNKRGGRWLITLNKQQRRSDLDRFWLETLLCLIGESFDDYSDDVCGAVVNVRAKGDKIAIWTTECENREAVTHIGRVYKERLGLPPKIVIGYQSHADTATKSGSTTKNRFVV
T2 sequence (P29338 whole entry): as the sequence (P06730 whole entry) above, with T16P, T17A, E174D counted along it
Eukaryotic translation initiation factor 4E (Oryctolagus cuniculus), sequence (P29338 whole entry): as the sequence (P06730 whole entry) above, with T16P, T17A, E174D counted along it

Regarding `CO[C@H]1[C@@H](O)[C@H](n2c[n+](C)c3c(O)nc(N)nc32)O[C@@H]1COP(=O)(O)OP(=O)([O-])OP(=O)(O)OC[C@H]1O[C@@H](n2cnc3c(=O)[nH]c(N)nc32)[C@H](O)[C@@H]1O`, the Ratio in data set [1] came out at 1.5.

As for `B[P@@](=O)(OC[C@H]1O[C@@H](n2c[n+](C)c3c(O)nc(N)nc32)[C@H](O)[C@@H]1O)OP(=O)([O-])OP(=O)([O-])O[P@](B)(=O)OC[C@H]1O[C@@H](n2c[n+](C)c3c(O)nc(N)nc32)[C@H](O)[C@@H]1O`, the metabolised at 3 h, 40 µM in [2] was determined as 81%.

Turning to `C[n+]1cn([C@@H]2O[C@H](COP(=O)(O)OP(=O)(O)CP(=O)(O)O)[C@@H](O)[C@H]2O)c2nc(N)nc([O-])c21`, the Ka in data set [3] turned out to be 19.5 µM⁻¹.

Take `B[P@](=O)(OC[C@H]1O[C@@H](n2c[n+](C)c3c(O)nc(N)nc32)[C@H](O)[C@@H]1O)OP(=O)([O-])CP(=O)(O)O.N.N.N.N`: the pIC50 was 5.49 in data set [4] and 5.35 in [5]. Further, the Ka in data set [3] is 18.5 µM⁻¹. Also, the Stability result on m7GpppX diphosphatase is listed as “Unstable”.

As for `C[n+]1cn([C@@H]2O[C@H](COP(=O)(O)OP(=O)(O)OP(=O)(O)OP(=O)(O)OC[C@H]3O[C@@H](n4c[n+](C)c5c([O-])nc(N)nc54)[C@H](O)[C@@H]3O)[C@@H](O)[C@H]2O)c2nc(N)nc([O-])c21`, in data set [1], the Ratio was found to be 3.14.

For the compound `[BH3-]P(=O)(OC[C@H]1O[C@@H](n2c[n+](C)c3c(O)nc(N)nc32)[C@H](O)[C@@H]1O)OP(=O)(O)CP(=O)(O)O` (stereo not given in full), the values for the Stability result in [6] and in data set [7] were “Unstable” and “Stable”, respectively.

Turning to `C[n+]1cn([C@@H]2O[C@H](CO[P@@](=O)(S)OP(=O)([O-])CP(=O)(O)O)[C@@H](O)[C@H]2O)c2nc(N)nc(O)c21.N.N.N.N`, the Stability entry in the data set with Serum [8], in the data set on Serum [9] and on m7GpppX diphosphatase was “Unstable” in each case. In addition, the pIC50 in data set [4] is 5.58; in [5], 5.43. In addition, the Ka in [3] turned out to be 41.8 µM⁻¹.

Take `C[n+]1cn([C@@H]2O[C@H](CO[P@](=O)(S)OP(=O)([O-])OP(=O)(O)O)[C@@H](O)[C@H]2O)c2nc(N)nc(O)c21.N.N.N.N`: the Stability entry was “Stable” with Serum [8], “Stable” in the data set with Serum [9] and “Unstable” on m7GpppX diphosphatase. This compound had a Ka in data set [3] of 371 µM⁻¹.

In turn, `C[n+]1cn([C@@H]2O[C@H](COP(=O)(O)OP(=O)([O-])OP(=O)(O)OC[C@H]3O[C@@H](n4cnc5c(=O)[nH]c(N)nc54)[C@H](O)[C@@H]3O)[C@@H](O)[C@H]2O)c2nc(N)[nH]c(=O)c21` had a pIC50 in data set [4] of 4.60. Further, the Stability result on m7GpppX diphosphatase is on record as “Stable”.

Regarding `C[n+]1cn([C@@H]2O[C@H](CO[P@](=O)(S)OP(=O)([O-])CP(=O)([O-])O[P@](=O)(S)OC[C@H]3O[C@@H](n4c[n+](C)c5c(O)nc(N)nc54)[C@H](O)[C@@H]3O)[C@@H](O)[C@H]2O)c2nc(N)nc(O)c21`, the Ratio in data set [1] was 1.56.

Turning to `B[P@](=O)(OC[C@H]1O[C@@H](n2c[n+](C)c3c(O)nc(N)nc32)[C@H](O)[C@@H]1O)OP(=O)([O-])CP(=O)([O-])O[P@](B)(=O)OC[C@H]1O[C@@H](n2c[n+](C)c3c(O)nc(N)nc32)[C@H](O)[C@@H]1O`, the Ratio in data set [1] was determined as 1.18.

`C[n+]1cn([C@@H]2O[C@H](COP(=O)(O)OP(=O)([O-])OP(=O)(O)OC[C@H]3O[C@@H](n4cnc5c(=O)[nH]c(N)nc54)[C@H](O)[C@@H]3O)[C@@H](O)[C@H]2O)c2nc(N)nc(O)c21` showed a Ka in data set [3] of 9.4 µM⁻¹.

On to `[BH3-]P(=O)(OC[C@H]1O[C@@H](n2c[n+](C)c3c(O)nc(N)nc32)[C@H](O)[C@@H]1O)OP(=O)(O)OP(=O)(O)O` (stereo not given in full), for which the values for the Stability entry in data set [6] and in [7] were “Unstable” and “Stable”, respectively.

In the case of `C[n+]1cn([C@@H]2O[C@H](COP(=O)([O-])OP(=O)(O)OP(=O)(O)O)[C@@H](O)[C@H]2O)c2nc(N)[nH]c(=O)c21`, the figures for the Stability result with Serum [8], in the data set on Serum [9] and at m7GpppX diphosphatase were “Unstable”, “Unstable” and “Stable”, respectively.

With `C[n+]1cn([C@@H]2O[C@H](COP(=O)(O)OP(=O)(O)OP(=O)(O)OC[C@H]3O[C@@H](n4c[n+](C)c5c([O-])nc(N)nc54)[C@H](O)[C@@H]3O)[C@@H](O)[C@H]2O)c2nc(N)nc([O-])c21`, in data set [1], the Ratio came out at 2.66.

For the compound `C[n+]1cn([C@@H]2O[C@H](CO[P@@](=O)(S)OP(=O)([O-])OP(=O)(O)O)[C@@H](O)[C@H]2O)c2nc(N)nc(O)c21.N.N.N.N`, the values for the Stability entry with Serum [8], in the data set with Serum [9] and on m7GpppX diphosphatase were “Stable”, “Stable” and “Unstable”, respectively. The pIC50 in data set [4] is 5.89; in data set [5], 5.84. Also, the Ka in data set [3] worked out at 190 µM⁻¹.

With `C[n+]1cn([C@@H]2O[C@H](COP(=O)(O)OP(=O)(O)NP(=O)(O)O)[C@@H](O)[C@H]2O)c2nc(N)nc([O-])c21`, the Stability entry in data set [10] and in data set [11] was “Unstable” each time.

Take `B[P@](=O)(OC[C@H]1O[C@@H](n2c[n+](C)c3c(O)nc(N)nc32)[C@H](O)[C@@H]1O)OP(=O)([O-])OP(=O)(O)O.N.N.N.N`: the figures for the negative-log IC50 (pIC50) in data set [4] and in [5] were 5.49 and 5.39, respectively. This compound also had a Ka in data set [3] of 136 µM⁻¹. In addition, the Stability result at m7GpppX diphosphatase is “Unstable”.

Consider `B[P@@](=O)(OC[C@H]1O[C@@H](n2c[n+](C)c3c(O)nc(N)nc32)[C@H](O)[C@@H]1O)OP(=O)([O-])OP(=O)(O)O.N.N.N.N`, for which the pIC50 was 5.89 in data set [4] and 5.92 in data set [5]. In data set [3], this compound showed a Ka of 148 µM⁻¹. The metabolised at 3 h, 40 µM in data set [2] worked out at 19%. Moreover, the Stability result on m7GpppX diphosphatase is on record as “Unstable”.

`C[n+]1cn([C@@H]2O[C@H](CO[P@@](=O)(S)OP(=O)([O-])CP(=O)([O-])O[P@](=O)(S)OC[C@H]3O[C@@H](n4c[n+](C)c5c(O)nc(N)nc54)[C@H](O)[C@@H]3O)[C@@H](O)[C@H]2O)c2nc(N)nc(O)c21`: the Ratio in [1] is 1.12.

With `C[n+]1cn([C@@H]2O[C@H](CO[P@](=O)(S)OP(=O)([O-])CP(=O)([O-])O[P@@](=O)(S)OC[C@H]3O[C@@H](n4c[n+](C)c5c(O)nc(N)nc54)[C@H](O)[C@@H]3O)[C@@H](O)[C@H]2O)c2nc(N)nc(O)c21`, the Ratio in [1] was found to be 1.86.

On to `B[P@@](=O)(OC[C@H]1O[C@@H](n2c[n+](C)c3c(O)nc(N)nc32)[C@H](O)[C@@H]1O)OP(=O)([O-])CP(=O)(O)O.N.N.N.N`, for which the pIC50 in data set [4] is 5.49; in data set [5], 5.59. For the same compound, the Ka in data set [3] is 36.1 µM⁻¹. The Stability result on m7GpppX diphosphatase is “Unstable”.

Turning to `B[P@@](=O)(OC[C@H]1O[C@@H](n2c[n+](C)c3c(O)nc(N)nc32)[C@H](O)[C@@H]1O)OP(=O)([O-])CP(=O)([O-])O[P@](B)(=O)OC[C@H]1O[C@@H](n2c[n+](C)c3c(O)nc(N)nc32)[C@H](O)[C@@H]1O`, the Ratio in data set [1] was 0.99.

Regarding `B[P@](=O)(OC[C@H]1O[C@@H](n2c[n+](C)c3c(O)nc(N)nc32)[C@H](O)[C@@H]1O)OP(=O)([O-])CP(=O)([O-])O[P@@](B)(=O)OC[C@H]1O[C@@H](n2c[n+](C)c3c(O)nc(N)nc32)[C@H](O)[C@@H]1O`, the Ratio in data set [1] was determined as 0.85.

As to `[BH3-]P(=O)(OC[C@H]1O[C@@H](n2c[n+](C)c3c(O)nc(N)nc32)[C@H](O)[C@@H]1O)OP(=O)(O)NP(=O)(O)O` (stereo not given in full), the Stability result in data set [10] and in data set [11] was “Unstable” throughout. The degraded in data set [12] was above 50%.

Take `C[n+]1cn([C@@H]2O[C@H](CO[P@](=O)(S)OP(=O)([O-])CP(=O)(O)O)[C@@H](O)[C@H]2O)c2nc(N)nc(O)c21.N.N.N.N`: the Stability result with Serum [8] is recorded as “Stable”; with Serum [9], “Stable”; at m7GpppX diphosphatase, “Unstable”. Moreover, the pIC50 in data set [4] was 5.91; in data set [5], 5.83. The compound also yielded a Ka in data set [3] of 85.9 µM⁻¹.

The pIC50 is the negative decadic logarithm of the IC50, by convention in mol/L. A high value points to a low IC50.
